According to patent EP4620954A1, “CDK2 INHIBITOR, PREPARATION METHOD THEREFOR, AND USE THEREOF” (Shandong Luye Pharmaceutical Co., Ltd., priority 2022, dated 2024):
Read-outs that look alike come from different tables or passages of the source.

Experiments:
CDK2/Cyclin E1 = molecular target: T1, CDK2/Cyclin E1 (Homo sapiens, UniProt P24941); assay: CDK2 kinase antagonistic activity assay (TR-FRET); assay type: biochemical; details: TR-FRET; peptide mix containing 10 µM ATP; 90 min at 23 °C; read-out: CDK2/Cyclin E1 IC50
T1 construct: purchased Invitrogen PV6296
Method: (§1) Compounds were dissolved in DMSO and serially diluted 3-fold to generate 11 concentrations. 100 nL of each compound was added to 384-well plates, followed by the addition of 5 µL of 2× CDK2/Cyclin E1 or CDK1/Cyclin B enzyme mixed solution. 5 µL of buffer (50 mM Hepes (pH 7.5), 10 mM MgCl2, 1 mM EDTA, 0.01% Brij-35, 2 mM DTT (prepared freshly)) was added to the complete inhibition control wells. The plates were centrifuged at 1000 rpm for 30 s and incubated at 23 °C for 15 min. Then, 5 µL of 2× MLight-MBP peptide (containing 10 µM ATP) was added to each well of each assay plate. The plates were centrifuged again at 1000 rpm for 30 s and incubated at 23 °C for 90 min.
After the incubation was completed, the reaction was stopped with a detection buffer containing 15 mM EDTA and 2 nM Eu-anti-P-MBP antibody. After centrifugation at 1000 rpm for about 1 min, the plates were incubated at 23 °C for 60 min and read on Perkin Elmer Envision. The TR-FRET ratio (value at 665 nm/value at 615 nm) was automatically calculated by Envision.
(§2) The IC50 values of the compounds were calculated using GraphPad Prism nonlinear fitting equation. Table 1. Kinase activity assay

HCT116 cells = assay: Antagonistic effect assay against HCT116 cell proliferation (CellTitle-Glo); assay type: cell-based; details: Homo sapiens, HCT-116, 72 h treatment, 0.01-10.00 µM, read-out: Antiproliferative IC50
Method: Frozen HCT116 cells were rapidly transferred from liquid nitrogen to a 37 °C water bath and rapidly shaken for thawing. The cell suspension was transferred to a 15 mL centrifuge tube and centrifuged at 1500 rpm for 5 min, and the supernatant was discarded. The cell pellet was resuspended in RPMI-1640 complete medium (containing 10% fetal bovine serum and 1% penicillin/streptomycin) and transferred to a cell culture dish containing 10 mL of medium. The cells were cultured in an incubator at 37 °C/5% CO2. The cells were passaged after adhesion to the wall.
HCT116 cells in the logarithmic growth phase and in good condition were taken, digested with a trypsin solution, resuspended in a certain amount of RPMI-1640 complete medium to form a single-cell suspension, counted on a cell counting plate, and seeded into a 96-well white plate at a density of 800 cells/well. The plate was left to stand for 5 min and then incubated in an incubator at 37 °C/5% CO2 overnight. The next day, the cells were treated with the compound at different concentrations, and the control group was treated with DMSO at the corresponding concentration. The compound, dissolved in DMSO, was diluted in RPMI-1640 complete medium at a ratio of 1:1000 to obtain final concentrations of 10.00 µM, 3.33 µM, 1.11 µM, 0.37 µM, 0.12 µM, 0.04 µM, and 0.01 µM. Each group was set up with 3 replicate wells, and 100 µL of the treatment solution was added to each well. The plate was incubated in an incubator at 37 °C/5% CO2 for 72 h.
After 72 h of treatment, the CellTitle-Glo assay was performed. 100 µL of CellTitle-Glo solution was added to each well of the control and treatment groups. The plate was mixed on an oscillator for 2 min to induce cell lysis. The 96-well plate was incubated at room temperature for 10 min to stabilize the luminescence signal value. The luminescence signal was measured using a microplate reader. The DMSO-treated cell group was used as the control group, and 50% inhibitory concentration (IC50) was calculated according to the median effect equation as follows: [formula]
The IC50 values of the compounds were calculated using GraphPad Prism nonlinear fitting equation. Table 2. Results for the inhibitory effect of the compounds of the present disclosure on HCT116 cell proliferation

[1] = In-vitro liver microsomal stability, rat; assay type: in vitro ADME; details: SD rat liver microsomes 0.5 mg/mL, 1 µM, NADPH 1 mM, 37 °C
Method: (§3) Method: The metabolic stability of test substances was evaluated by using human, dog, and SD rat liver microsomes. The test substances were incubated with liver microsomes from different species and NADPH in a water bath at 37 °C. In the incubation system, the final concentration of the test or control sample was 1 µM, the final concentration of liver microsomes was 0.5 mg/mL, the final concentration of NADPH was 1 mM, and the final concentration of MgCl2 was 3 mM. At designated time points (5 min, 10 min, 20 min, 30 min, and 60 min), the reaction was stopped by adding a cold acetonitrile solution containing tolbutamide (at a concentration of 200 ng/mL) as an internal standard. For the 0-min sample, the stop solution was added before the addition of the NADPH working solution. Testosterone and dextromethorphan were used as positive control samples in the same conditions to assess the stability and reliability of the system. After sample pretreatment, semiquantitative analysis was performed using the LC-MS/MS method. The retention times of the analytes and internal standard, the acquisition of chromatograms and the integration of chromatograms were processed using software Analyst (AB Sciex, Framingham, Massachusetts, USA). The remaining percentage of the test samples after 60 min of incubation was calculated, and the test results are shown in Table 3. Table 3. Test data for the compounds of the present disclosure in human, dog, and rat liver microsomes

CDK1/Cyclin B = molecular target: T2, CDK1/Cyclin B (Homo sapiens, UniProt P06493); assay: CDK1 kinase activity assay (TR-FRET); assay type: biochemical
T2 construct: purchased Invitrogen PR4768C
T2 sequence (P06493 whole entry): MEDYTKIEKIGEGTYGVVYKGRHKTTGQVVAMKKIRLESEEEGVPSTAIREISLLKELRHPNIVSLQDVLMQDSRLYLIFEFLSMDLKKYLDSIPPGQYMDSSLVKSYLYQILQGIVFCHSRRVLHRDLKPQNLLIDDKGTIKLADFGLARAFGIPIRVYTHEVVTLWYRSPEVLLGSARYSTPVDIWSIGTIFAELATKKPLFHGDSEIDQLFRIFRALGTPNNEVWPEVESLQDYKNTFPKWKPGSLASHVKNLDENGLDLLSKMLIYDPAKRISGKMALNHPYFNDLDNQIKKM
T2 sequence (P14635 whole entry partner): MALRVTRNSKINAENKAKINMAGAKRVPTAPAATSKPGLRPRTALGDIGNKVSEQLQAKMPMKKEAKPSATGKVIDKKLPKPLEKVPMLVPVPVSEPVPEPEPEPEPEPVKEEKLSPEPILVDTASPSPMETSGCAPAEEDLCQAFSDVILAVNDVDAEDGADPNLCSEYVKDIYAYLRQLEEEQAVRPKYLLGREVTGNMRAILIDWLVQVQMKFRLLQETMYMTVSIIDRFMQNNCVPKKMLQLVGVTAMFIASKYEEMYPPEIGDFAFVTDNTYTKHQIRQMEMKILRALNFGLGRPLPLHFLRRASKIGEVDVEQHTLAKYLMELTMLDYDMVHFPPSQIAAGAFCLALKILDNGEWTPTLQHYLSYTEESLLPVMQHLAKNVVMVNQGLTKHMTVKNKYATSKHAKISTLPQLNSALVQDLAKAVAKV
Method: as §1
After the incubation was completed, the reaction was stopped with a detection buffer containing 15 mM EDTA and 2 nM Eu-anti-P-MBP antibody. After centrifugation at 1000 rpm for about 1 min, the plates were incubated at 23 °C for 60 min and read on Perkin Elmer Envision.
as §2

[2] = Permeability and transporter substrate evaluation, Caco-2 monolayer; assay type: in vitro ADME; details: human, Caco-2, Table 4 experimental system, Caco-2, 2.00 µM
Method: (§4) Cell: Caco-2 cells Instrument: water purification equipment, ELGA LabWate; biosafety cabinet, Nuaire; thermostatic CO2 incubator, Thermo; microplate reader, PerkinElmer; LC-MS/MS, AB SCIEX. Method: The purpose of this study was to determine the two-way permeability of the compounds and evaluate whether they are effluxed and transported by P-glycoprotein (P-gp) using a Caco-2 monolayer cell model. In the experiment, Caco-2 cells were seeded into a 96-well cell plate and cultured for 24 consecutive days for the transport experiment. The compounds were administered bidirectionally at a concentration of 2.00 µM, with or without verapamil. After 120 min of incubation, the samples at the apical end A and the basal end B were collected. The content of the test samples in each sample was measured using the liquid chromatography-tandem mass spectrometry (LC-MS/MS) method. The apparent permeability coefficient and the efflux rate were calculated. Two experimental systems were used successively in this part, with the reference compound (PF-07104091) included. Table 4. Permeability test results

P-glycoprotein (P-gp) = assay: as above; assay type: in vitro ADME; details: human, Caco-2, Table 4 experimental system, Caco-2, 2.00 µM
Method: as §4

[3] = In-vitro liver microsomal stability, dog; assay type: in vitro ADME; details: dog liver microsomes 0.5 mg/mL, 1 µM, NADPH 1 mM, 37 °C
Method: as §3

[4] = In-vitro liver microsomal stability, human; assay type: in vitro ADME; details: human liver microsomes 0.5 mg/mL, 1 µM, NADPH 1 mM, 37 °C
Method: as §3

[5] = TR-FRET, peptide mix containing 10 µM ATP, 90 min at 23 °C, read-out: CDK1/Cyclin B1 IC50

| Compound | IC50 (CDK2/Cyclin E1) [nM] | IC50 (HCT116 cells) [nM] | Remaining amount% at 60 min Rat [1] [%] | IC50 (CDK1/Cyclin B; [5]) [nM] | Papp A→B at 120 min, 2 µM [2] [×10⁻⁶ cm/s] | Papp B→A at 120 min, 2 µM [2] [×10⁻⁶ cm/s] | efflux ratio at 120 min, 2 µM (P-glycoprotein (P-gp)) | Remaining amount% at 60 min Dog [3] [%] | Remaining amount% at 60 min Human [4] [%] | IC50 (CDK1/Cyclin B) [nM] |
| --- | --- | --- | --- | --- | --- | --- | --- | --- | --- | --- |
| COCc1cc(C(=O)Nc2cc([C@H]3CC[C@@H](OC(=O)NC(C)C#N)C3)[nH]n2)n(C)n1 (stereo partly drawn) [Compound 1] | 2.24 | 3660 | 85.0 | 78.2 | < 0.48 | 19.3 | > 40.2 | 92.0 | 80.3 |  |
| COCc1cc(C(=O)Nc2cc([C@H]3CC[C@@H](OC(=O)N(C)C4CCC(=C(F)F)CC4)C3)[nH]n2)n(C)n1 (stereo partly drawn) [Compound 2] | 5.15 | 2470 | 3.87 | 42.5 | 0.218 | 43.4 | 199 | 12.7 | 5.38 |  |
| COCc1cc(C(=O)Nc2cc([C@H]3CC[C@@H](OC(=O)NCC=C(F)F)C3)[nH]n2)n(C)n1 [Compound 3] | 1.22 | 2090 | 74.6 | 78.2 | 0.218 | 32.8 | 150 | 86.7 | 90.9 |  |
| C#CC(C)NC(=O)O[C@@H]1CC[C@H](c2cc(NC(=O)c3cc(COC)nn3C)n[nH]2)C1 (stereo partly drawn) [Compound 4] | 2.58 | 2340 | 77.9 | 460 | 0.0791 | 30.8 | 390 | 77.9 | 93.5 |  |
| COCc1cc(C(=O)Nc2cc([C@H]3CC[C@@H](OC(=O)NC45CC6CC(CC(C6)C4)C5)C3)[nH]n2)n(C)n1 [Compound 6] | 0.95 | 2640 | 1.80 |  | 0.54 | 26.3 | 48.7 | 30.3 | 11.0 | 78.4 |
| CC(C)NC(=O)O[C@@H]1CC[C@H](c2cc(NC(=O)c3cc(CS(C)(=O)=O)nn3C)n[nH]2)C1 [Compound 7] | 0.64 | 2250 | 101 | 90 | < 0.26 | 14.4 | > 55.4 | 101 | 93.2 |  |
| CC(C)NC(=O)O[C@@H]1CC[C@H](c2cc(Nc3ccc(N4CCN(C)CC4)cc3)n[nH]2)C1 [Compound 9] | 4.38 | 2620 | 27.7 | 138 | 0.52 | 43.8 | 84.2 | 7.34 | 93.2 |  |
| Cn1nc(CS(C)(=O)=O)cc1C(=O)Nc1cc([C@@H]2C[C@H](OC(=O)N3CCC3(C)C)CO2)[nH]n1 [Compound 27] | 9.32 | 3010 | 81.2 | 54.2 |  |  |  | 96.7 | 91.3 |  |
